Drawing on patent US10947252B2, “Inhibitors of KEAP1-Nrf2 protein-protein interaction” (Janssen Pharmaceutica NV, priority 2018, dated 2021), this text covers EC50 and Kd for 16 molecules.

Test [1] concerns Glo-Response ARE-luc2P HEK293 cell line. Nature of the test: ARE luciferase reporter cell-based assay.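 Further: luciferase signal tracks Nrf2 activation of the ARE once compounds disrupt KEAP1-Nrf2 binding, read with One-Glo reagent, DMSO serving as low control.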 The conditions noted are these: Homo sapiens, HEK293, 24 h, average of results obtained. For orientation: Reporter assays use an easily measured gene product as a stand-in for the process of interest.
Test [2] deals with Kelch domain of human KEAP1 (321-624 aa) (Homo sapiens (Human), UniProt Q14145). Nature of the test: KEAP1 KELCH ThermoFluor binding assay.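 Further: Ligand-induced melting temperature shift of E. coli-expressed KEAP1 Kelch protein, Kd estimated from concentration-response curves of ΔTm.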 The conditions noted are these: KEAP Kelch […], 1,8-ANS, pH 7.0, average of results obtained, read-out: Tf Kd. Background: Differential scanning fluorimetry follows unfolding on heating by fluorescence.

Each structure is given as a SMILES string.

Kelch domain of human KEAP1 (321-624 aa), sequence (Q14145 321-624): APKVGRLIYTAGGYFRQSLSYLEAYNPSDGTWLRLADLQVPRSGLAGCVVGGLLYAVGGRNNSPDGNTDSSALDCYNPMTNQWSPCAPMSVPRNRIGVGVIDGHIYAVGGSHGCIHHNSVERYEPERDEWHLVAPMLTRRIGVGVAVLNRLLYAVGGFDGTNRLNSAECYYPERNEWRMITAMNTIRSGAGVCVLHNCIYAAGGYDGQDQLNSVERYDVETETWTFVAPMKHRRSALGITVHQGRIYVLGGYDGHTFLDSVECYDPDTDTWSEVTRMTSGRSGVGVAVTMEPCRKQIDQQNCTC

`Cc1ccc([C@H](CC(=O)O)c2ccn3c(C(F)(F)F)nnc3c2C)cc1CN1C[C@@H]2CCCCN2c2ncc(C#N)cc2S1(=O)=O` (single isomer, unassigned) [Example 10, (*S)-3-(3-(((*S)-3-Cyano-5,5-dioxido-7,7a,8,9,10,11-hexahydro-6H-dipyrido[2,1-d:2′,3′-f][1,2,5]thiadiazepin-6-yl)methyl)-4-methylphenyl)-3-(8-methyl-3-(trifluoromethyl)-[1,2,4]triazolo[4,3-a]pyridin-7-yl)propanoic Acid]: the response in test [1] was half-maximal at 5.2 nM (EC50). The Kd (usually the concentration at which binding is half-saturated) in test [2] was < 1 nM.
For `Cc1ccc([C@@H](c2ccn3c(C(F)F)nnc3c2C)C(C)(C)C(=O)O)nc1CN1CC2(COC2)Oc2ncccc2S1(=O)=O` (single isomer, unassigned) [Example 610, (*S)-3-(3-(Difluoromethyl)-8-methyl-[1,2,4]triazolo[4,3-a]pyridin-7-yl)-3-(6-((1′,1′-dioxidospiro[oxetane-3,4′-pyrido[2,3-b][1,4,5]oxathiazepin]-2′(3′H)-yl)methyl)-5-methylpyridin-2-yl)-2,2-dimethylpropanoic Acid], in that order: 4.42 nM and < 1 nM.
For `Cc1cnc2c(c1)S(=O)(=O)N(Cc1cc([C@@H](c3ccn4c(C(F)(F)F)nnc4c3C)C(C)(C)C(=O)O)ccc1C)CC1(COC1)O2` (single isomer, unassigned) [Example 614, (*S)-2,2-dimethyl-3-(4-methyl-3-((8′-methyl-1′,1′-dioxidospiro[oxetane-3,4′-pyrido[2,3-b][1,4,5]oxathiazepin]-2′(3′H)-yl)methyl)phenyl)-3-(8-methyl-3-(trifluoromethyl)-[1,2,4]triazolo[4,3-a]pyridine-7-yl)propanoic Acid], in that order: 0.71 nM and < 1 nM.
Regarding `Cc1ccc(C(CC(=O)O)c2ccn3c(C(F)(F)F)nnc3c2C)nc1CN1CC2CCCCN2c2ncc(Cl)cc2S1(=O)=O` (centres unmarked) [Example 518, 3-(6-((3-Chloro-5,5-dioxido-7,7a,8,9,10,11-hexahydro-6H-dipyrido[2,1-d:2′,3′-f][1,2,5]thiadiazepin-6-yl)methyl)-5-methylpyridin-2-yl)-3-(8-methyl-3-(trifluoromethyl)-[1,2,4]triazolo[4,3-a]pyridin-7-yl)propanoic Acid], the EC50 (usually the concentration needed to bring the measured effect to its halfway point) in test [1] is 3.48 nM. The Kd in test [2] was < 1 nM.
For `Cc1cnc2c(c1)S(=O)(=O)N(Cc1cc([C@@H](CC(=O)O)c3ccn4c(C(F)(F)F)nnc4c3C)cnc1C)CC1(CC1)O2` (single isomer, unassigned) [Example 563, (*S)-3-(8-Methyl-3-(trifluoromethyl)-[1,2,4]triazolo[4,3-a]pyridin-7-yl)-3-(6-methyl-5-((8′-methyl-1′,1′-dioxidospiro[cyclopropane-1,4′-pyrido[2,3-b][1,4,5]oxathiazepin]-2′(3′H)-yl)methyl)pyridin-3-yl)propanoic Acid], in that order: > 20000 nM and 21 nM.
For `CCn1nnc2c(C)c([C@H](c3ccc(C)c(CN4CC5(CCOCC5)Oc5ncc(C)cc5S4(=O)=O)c3)C(C)(C)C(=O)O)ccc21` (single isomer, unassigned) [Example 420, (*S)-3-(1-ethyl-4-methyl-1H-benzo[d][1,2,3]triazol-5-yl)-2,2-dimethyl-3-(4-methyl-3-((8′-methyl-1′,1′-dioxido-2,3,5,6-tetrahydrospiro[pyran-4,4′-pyrido[2,3-b][1,4,5]oxathiazepin]-2′(3′H)-yl)methyl)phenyl)propanoic Acid], in that order: 57.8 nM and 268 nM.
`Cc1cnc2c(c1)S(=O)(=O)N(Cc1cc(C(c3ccn4c(C(F)F)nnc4c3C)C(C)(C)C(=O)O)ccc1C)CC1(CCOCC1)O2` (racemic) [Example 575, (R/S)-3-(3-(Difluoromethyl)-8-methyl-[1,2,4]triazolo[4,3-a]pyridin-7-yl)-2,2-dimethyl-3-(4-methyl-3-((8′-methyl-1′,1′-dioxido-2,3,5,6-tetrahydrospiro[pyran-4,4′-pyrido[2,3-b][1,4,5]oxathiazepin]-2′(3′H)-yl)methyl)phenyl)propanoic Acid] yielded an EC50 in test [1] of 6.62 nM. In addition, the Kd in test [2] is < 1 nM.
Turning to `Cc1ccc([C@H](CC(=O)O)c2ccn3c(C(F)(F)F)nnc3c2C)nc1CN1C[C@@H]2CCCCN2c2ncc(Cl)cc2S1(=O)=O` (single isomer, unassigned) [Example 521, (*R)-3-(6-(((*S)-3-Chloro-5,5-dioxido-7,7a,8,9,10,11-hexahydro-6H-dipyrido[2,1-d:2′,3′-f][1,2,5]thiadiazepin-6-yl)methyl)-5-methylpyridin-2-yl)-3-(8-methyl-3-(trifluoromethyl)-[1,2,4]triazolo[4,3-a]pyridin-7-yl)propanoic Acid], it took 1.97 nM to reach a half-maximal effect in test [1] (EC50). Besides, in test [2], the Kd is < 1 nM.
`Cc1ccc([C@H](CC(=O)O)c2ccn3c(C(F)(F)F)nnc3c2C)cc1CN1CC(C)(C)Oc2ncccc2S1(=O)=O` (single isomer, unassigned) [Example 269, (*S)-3-(3-((4,4-Dimethyl-1,1-dioxido-3,4-dihydro-2H-pyrido[2,3-b][1,4,5]oxathiazepin-2-yl)methyl)-4-methylphenyl)-3-(8-methyl-3-(trifluoromethyl)-[1,2,4]triazolo[4,3-a]pyridin-7-yl)propanoic Acid]: in test [1], a half-maximal effect (EC50) was put at 365 nM. Moreover, in test [2], the Kd was < 1 nM.
For the molecule `Cc1ccc([C@@H](c2ccn3c(C(F)(F)F)nnc3c2C)C(C)(C)C(=O)O)cc1CN1CC2(CCOCC2)Oc2nc(CCC(=O)NC3CCC3)ccc2S1(=O)=O` (single isomer, unassigned) [Example 605, (*S)-3-(3-((7′-(3-Cyclobutylamino-3-oxopropyl)-1′,1′-dioxido-2,3,5,6-tetrahydrospiro[pyran-4,4′-pyrido[2,3-b][1,4,5]oxathiazepin]-2′(3′H)-yl)methyl)-4-methylphenyl)-2,2-dimethyl-3-(8-methyl-3-(trifluoromethyl)-[1,2,4]triazolo[4,3-a]pyridine-7-yl)propanoic Acid], a half-maximal response in test [1] (EC50) required 109 nM. In test [2], the dissociation constant (Kd) was < 1 nM.
The like results for `Cc1ccc([C@@H](CC(=O)O)c2ccc3c(nnn3CC3CC3)c2C)cc1CN1C[C@@H]2CCCCN2c2ncccc2S1(=O)=O` (single isomer, unassigned) [Example 233, (*R)-3-(1-(Cyclopropylmethyl)-4-methyl-1H-benzo[d][1,2,3]triazol-5-yl)-3-(3-(((*S)-5,5-dioxido-7,7a,8,9,10,11-hexahydro-6H-dipyrido[2,1-d:2′,3′-f][1,2,5]thiadiazepin-6-yl)methyl)-4-methylphenyl)propanoic Acid] were, in that order, 80 nM and < 1 nM.
In turn, `Cc1ccc([C@H](CC(=O)O)c2ccn3c(C(F)(F)F)nnc3c2C)cc1CN1CC2(CC2)N(C)c2ncccc2S1(=O)=O` (single isomer, unassigned) [Example 184, (*S)-3-(4-Methyl-3-((5′-methyl-1′,1′-dioxido-5′H-spiro[cyclopropane-1,4′-pyrido[2,3-f][1,2,5]thiadiazepin]-2′(3′H)-yl)methyl)phenyl)-3-(8-methyl-3-(t*rifluoromethyl)-[1,2,4]triazolo[4,3-a]pyridin-7-yl)propanoic Acid] registered an EC50 in test [1] of 130 nM. In test [2], the Kd was determined as 1.4 nM.
For `Cc1ccc([C@@H](CC(=O)O)c2ccn3c(C(F)(F)F)nnc3c2C)cc1CN1C[C@H]2CCCN2c2ncccc2S1(=O)=O` (single isomer, unassigned) [Example 390, (*R)-3-(3-(((R)-5,5-Dioxido-7a,8,9,10-tetrahydropyrido[2,3-f]pyrrolo[2,1-d][1,2,5]thiadiazepin-6(7H)-yl)methyl)-4-methylphenyl)-3-(8-methyl-3-(trifluoromethyl)-[1,2,4]triazolo[4,3-a]pyridin-7-yl)propanoic Acid], in that order: 90.9 nM and < 1 nM.
For `Cc1cnc2c(c1)S(=O)(=O)N(Cc1cc([C@H](c3ccc4c(nnn4C4CC4)c3C)C(C)(C)C(=O)O)ccc1C)CC1(CCNCC1)O2` (single isomer, unassigned) [Example 649, (*R)-3-(1-Cyclopropyl-4-methyl-1H-benzo[d][1,2,3]triazol-5-yl)-2,2-dimethyl-3-(4-methyl-3-((8′-methyl-1′,1′-dioxidospiro[piperidine-4,4′-pyrido[2,3-b][1,4,5]oxathiazepin]-2′(3′)-yl)methyl)phenyl)propanoic Acid], in test [1], the EC50 stood at 4750 nM. For the same molecule, the Kd in test [2] was determined as 1450 nM.
The like results for `Cc1ccc(C(CC(=O)O)c2cc(OC3CC3)c3c(c2)nnn3C)cc1CN1C[C@H]2CCCCN2c2ncccc2S1(=O)=O` (stereo in doubt) [Example 403, 3-(7-Cyclopropoxy-1-methyl-1H-benzo[d][1,2,3]triazol-5-yl)-3-(3-(((*R)-5,5-dioxido-7,7a,8,9,10,11-hexahydro-6H-dipyrido[2,1-d:2′,3′-f][1,2,5]thiadiazepin-6-yl)methyl)-4-methylphenyl)propanoic Acid] were, in that order, 20.8 nM and < 1 nM.
`Cc1ccc([C@@H](c2ccc3c(nnn3CC3CC3)c2C)C(C)(C)C(=O)O)nc1CN1CC2(CCOCC2)Oc2nc(OCCN3CCOCC3)ccc2S1(=O)=O` (single isomer, unassigned) [Example 328, (*S)-3-(1-(Cyclopropylmethyl)-4-methyl-1H-benzo[d][1,2,3]triazol-5-yl)-2,2-dimethyl-3-(5-methyl-6-((7′-(2-morpholinoethoxy)-1′,1′-dioxido-2,3,5,6-tetrahydrospiro[pyran-4,4′-pyrido[2,3-b][1,4,5]oxathiazepin]-2′(3′H)-yl)methyl)pyridin-2-yl)propanoic Acid] displayed an EC50 in test [1] of 3.3 nM. In test [2], the Kd is < 1 nM.
